We go through two compounds from patent US9169246B2, “Pyrazoloquinolinone derivatives, preparation thereof and therapeutic use thereof” (SANOFI, priority 2011, dated 2015).

This assay relates to HUVEC cells. Nature of the assay: Test of in vitro proliferation of HUVEC cells induced with FGF-2. Type of assay: cell-based. Particulars: Homo sapiens, FGF-2 1 ng/ml induced proliferation, ATP luminescence, head says M, cells print nM. Here is the method:
The compounds according to the invention underwent biochemical studies in order to determine their capacity to inhibit the enzyme methionine-aminopeptidase2 (enzymatic test on isolated enzyme). […] Consequently, the compounds of the invention that show good activity in the MetAP2 enzymatic test were evaluated in a test of in vitro proliferation of HUVEC cells induced with FGF-2. […] After incubation for 48 hours, the medium is aspirated and replaced with the deprivation medium RPMI1640 mentioned previously. A second stimulation is then performed. The cells are again incubated at 37° C. in the presence of CO2. After incubation for 72 hours, the medium is again aspirated and 100 μl of Cell Titer-GLOTM Luminescent Cell Viability Assay (Promega, G7571) are added over 10 minutes. The amount of ATP present in the cells, measured using a luminometer, is proportional to the number cells per well corresponding to the cell proliferation.

Each structure is given as a SMILES string.

Regarding `O=c1c2cn[nH]c2c2ccc(-c3ccccc3F)cc2n1CC(F)(F)F` [Compound 3, 7-(2-fluorophenyl)-5-(2,2,2-trifluoroethyl)-1,5-dihydro-4H-pyrazolo[4,3-c]quinolin-4-one], the midpoint of inhibition, the IC50, lay at 660 nM.
The value for `Cc1cc(-c2ccc3c4[nH]ncc4c(=O)n(CC(F)(F)F)c3c2)ccn1` [Compound 186, 7-(2-methylpyrid-4-yl)-5-(2,2,2-trifluoroethyl)-1,5-dihydro-4H-pyrazolo[4,3-c]quinolin-4-one] was 360 nM.
